In US7811352B2, “Fertilizer compositions and methods of using” (priority 2005, dated 2010):

Assays:
[1] = test system: lawn height, Kentucky bluegrass; assay: Color rating of lawn height Kentucky bluegrass after fertilization (Example 5); format: in vivo; settings: about two weeks after application
Method: In this Example, the efficacy of fertilizers on lawn height, Kentucky bluegrass was examined. Fertilizer compositions according to several embodiments of the present disclosure were prepared and compared to the commercial fertilizer products, urea 46-0-0 (granular) fertilizer, Lebanon fertilizer 21-0-12 (granular, commercially available from Lebanon Seaboard Corporation, Lebanon, Pa.) and Milorganite 6-2-0 (granular, commercially available from Milorganite, Milwaukee, Wis.). The fertilizer compositions were applied to the turf grass prior to winter dormancy at a rate equivalent to supplying about 1.0 pounds of nitrogen (N) per 1000 square feet. Each of the fertilizer compositions were applied at substantially equal rates of lbs of nitrogen (N) per 1000 square feet. Table 2 illustrates the response of lawn height, Kentucky bluegrass to fertilization using various exemplary fertilizers of the present invention, taken about two weeks after application of the fertilizer. The letters in the Color and Injury columns correspond to Duncan's Multiple Range Test.

[2] = test system: creeping bentgrass for greens; assay: Turfgrass quality and color ratings, creeping bentgrass for greens (Example 12); format: in vivo; settings: scale 1-10
Text: In this Example, the effect of a fertilizer comprising lysine on turfgrass growth was examined. The effects of lysine (HCl) and LIQUID LYSINE on a common type of golf course greens quality turfgrass (creeping bentgrass for greens) were compared with those of CoRoN® brand fertilizer (commercially available from Helena Chemical Co., Collierville, Tenn.).
Nine fertilizer treatments comprising three concentrations of each fertilizer composition (Corono® (N—P—K, 14-2-14), LIQUID LYSINE (N—P—K, 10-2-1), and lysine (HCl) (N—P—K, 15-2-1)) were prepared and applied to 3 replications of creeping bentgrass for use on golf course greens. The lysine (HCl) (250 g) was dissolved in water (500 mL) prior to application. Each fertilizer treatment was applied in concentrations of 0.7 g N/m^2, 1.4 g N/m^2, and 2.8 g N/m^2. All applications were made using an Ortho Heavy Duty hand pump sprayer with all products being mixed with 126 mL of water for application. Plot size was 2 ft×6 ft set up as a randomized complete block. Irrigation was applied following application. Plots were rated for turfgrass quality and color (scale of 1-10 where 10=dark green turf, 1=dead/brown turf, and 6minimally acceptable turf) and phytotoxicity (% bum) throughout the study period. Quality, color, and phytotoxicity were measured on day 7, day 14, day 2I1, day 28, day 35, and day 42 after application. All data was subject to statistical analysis and significant means were determined.

[3] = Solubility of L-lysine (HCl) in water; format: physicochemical; settings: at 25° C., read-out: solubility in H2O

For `NC(N)=O` [Urea, urea, reference compound], the “Color 1-9 (9 = dark green)” value ([1]; 1.09 Lbs. product/1000 square feet) was 7.0, the “Color 1-9 (9 = dark green)” value ([1]; 2.17 Lbs. product/1000 square feet) was 7.3 and the “Color 1-9 (9 = dark green)” value ([1]; 6.51 Lbs. product/1000 square feet) was 7.7.
In the case of `Cl.NCCCC[C@H](N)C(=O)O` [Lys (HCl) 15% N, L-lysine monohydrochloride], the “Color Ratings - Creeping Bentgrass” value ([2]; Rate 0.7 gN/m^2, Day 7) is reported as 6.0abc, the “Quality Ratings - Creeping Bentgrass” value ([2]; Rate 0.7 gN/m^2, Day 7) is reported as 5.3a and the “Color Ratings - Creeping Bentgrass” value ([2]; Rate 0.7 gN/m^2, Day 14) is reported as 6.0cd. For the same compound, the “Quality Ratings - Creeping Bentgrass” value ([2]; Rate 0.7 gN/m^2, Day 14) was 6.3cd, the “Color Ratings - Creeping Bentgrass” value ([2]; Rate 0.7 gN/m^2, Day 21) was 6.3a and the “Quality Ratings - Creeping Bentgrass” value ([2]; Rate 0.7 gN/m^2, Day 21) was 6.7a. For the same compound, the “Color Ratings - Creeping Bentgrass” value ([2]; Rate 0.7 gN/m^2, Day 28) was 6.3ab, the “Quality Ratings - Creeping Bentgrass” value ([2]; Rate 0.7 gN/m^2, Day 28) was 6.3a and the “Color Ratings - Creeping Bentgrass” value ([2]; Rate 0.7 gN/m^2, Day 35) was 6.3a. The “Quality Ratings - Creeping Bentgrass” value ([2]; Rate 0.7 gN/m^2, Day 35) was 6.3ab, the “Color Ratings - Creeping Bentgrass” value ([2]; Rate 0.7 gN/m^2, Day 42) was 7.3a and the “Quality Ratings - Creeping Bentgrass” value ([2]; Rate 0.7 gN/m^2, Day 42) was 7.0a. The “Color Ratings - Creeping Bentgrass” value ([2]; Rate 1.4 gN/m^2, Day 7) was 5.0c, the “Quality Ratings - Creeping Bentgrass” value ([2]; Rate 1.4 gN/m^2, Day 7) was 5.7a and the “Color Ratings - Creeping Bentgrass” value ([2]; Rate 1.4 gN/m^2, Day 14) was 5.0e. For the same compound, the “Quality Ratings - Creeping Bentgrass” value ([2]; Rate 1.4 gN/m^2, Day 14) was 5.7de, the “Color Ratings - Creeping Bentgrass” value ([2]; Rate 1.4 gN/m^2, Day 21) was 6.0a and the “Quality Ratings - Creeping Bentgrass” value ([2]; Rate 1.4 gN/m^2, Day 21) was 7.0a. For the same compound, the “Color Ratings - Creeping Bentgrass” value ([2]; Rate 1.4 gN/m^2, Day 28) was 6.7ab, the “Quality Ratings - Creeping Bentgrass” value ([2]; Rate 1.4 gN/m^2, Day 28) was 7.0a and the “Color Ratings - Creeping Bentgrass” value ([2]; Rate 1.4 gN/m^2, Day 35) was 5.7ab. The “Quality Ratings - Creeping Bentgrass” value ([2]; Rate 1.4 gN/m^2, Day 35) was 5.3cd, the “Color Ratings - Creeping Bentgrass” value ([2]; Rate 1.4 gN/m^2, Day 42) was 7.0a and the “Quality Ratings - Creeping Bentgrass” value ([2]; Rate 1.4 gN/m^2, Day 42) was 6.7a. For the same compound, the “Color Ratings - Creeping Bentgrass” value ([2]; Rate 2.8 gN/m^2, Day 7) was 5.3bc, the “Quality Ratings - Creeping Bentgrass” value ([2]; Rate 2.8 gN/m^2, Day 7) was 5.7a and the “Color Ratings - Creeping Bentgrass” value ([2]; Rate 2.8 gN/m^2, Day 14) was 5.0e. The “Quality Ratings - Creeping Bentgrass” value ([2]; Rate 2.8 gN/m^2, Day 14) was 5.3e, the “Color Ratings - Creeping Bentgrass” value ([2]; Rate 2.8 gN/m^2, Day 21) was 6.0a and the “Quality Ratings - Creeping Bentgrass” value ([2]; Rate 2.8 gN/m^2, Day 21) was 7.0a. For the same compound, the “Color Ratings - Creeping Bentgrass” value ([2]; Rate 2.8 gN/m^2, Day 28) was 6.3ab, the “Quality Ratings - Creeping Bentgrass” value ([2]; Rate 2.8 gN/m^2, Day 28) was 7.0a and the “Color Ratings - Creeping Bentgrass” value ([2]; Rate 2.8 gN/m^2, Day 35) was 5.0b. For the same compound, the “Quality Ratings - Creeping Bentgrass” value ([2]; Rate 2.8 gN/m^2, Day 35) was 4.3 days, the “Color Ratings - Creeping Bentgrass” value ([2]; Rate 2.8 gN/m^2, Day 42) was 6.3a and the “Quality Ratings - Creeping Bentgrass” value ([2]; Rate 2.8 gN/m^2, Day 42) was 6.7a. It also gave a solubility [3] of 500 to 600 mg/mL.
